Our source for the IC50 and Activity values is ChEMBL document CHEMBL3046653, “Synthesis and evaluation of DPPH and anti-inflammatory activities of 2,6-bisbenzylidenecyclohexanone and pyrazoline derivatives” (Med Chem Res, 2012).

Series [1] in a line: Antioxidant activity assessed as DPPH scavenging activity after 30 min by spectrophotometry. In kind it is functional. Background: Loss of DPPH colour is used to gauge radical scavenging.
Series [2] relates to RAW264.7. The experiment in a line: Anti-inflammatory activity in Mus musculus (mouse) RAW264.7 cells assessed as inhibition of IFN-gamma/LPS-induced nitric oxide production after 17 to 20 hr by Griess assay. It counts as functional, cell-based. On the technique in general: The Griess reaction detects nitrite, a stable product of nitric oxide.
For series [3], the system named is RAW264.7. The experiment in a line: Cytotoxicity against Mus musculus (mouse) RAW264.7 cells at IC50 for NO production by MTT assay. It counts as cell-based. For orientation: Tetrazolium assays rely on reduction of a dye to a coloured formazan, in cell work by metabolically active cells.
Series [4] deals with RAW264.7. Kind of series: Cytotoxicity against Mus musculus (mouse) RAW264.7 cells at >50 uM by MTT assay. In kind it is cell-based.
Series [5] concerns RAW264.7. The experiment in a line: Cytotoxicity against Mus musculus (mouse) RAW264.7 cells at 25 uM by MTT assay. It counts as cell-based. As to conditions: raw264.7, 25 µM.

On to `O=C1/C(=C/c2ccc(O)c(O)c2)CCC/C1=C\c1ccc(O)c(O)c1`, for which the values for the half-maximal inhibitory concentration (IC50) (in series [1]; in the series on RAW264.7 [2]) were 13.3 µM and 9.43 µM, respectively. On the same counts, the results for `COc1cc(/C=C2\CC/C(=C\c3ccc(OC(C)=O)c(OC)c3)C2=O)ccc1OC(C)=O` are no less than 100 µM and no less than 50 µM. On the same counts, the results for `CC(=O)Oc1ccc(/C=C2\CC/C(=C\c3ccc(OC(C)=O)c(OC(C)=O)c3)C2=O)cc1OC(C)=O` are no less than 100 µM and no less than 50 µM. On the same counts, the results for `COc1cc(/C=C2\CCC/C(=C\c3ccc(OC(C)=O)c(OC)c3)C2=O)ccc1OC(C)=O` are no less than 100 µM and 13.3 µM. On to `CCC(=O)Oc1ccc(/C=C2\CCC/C(=C\c3ccc(OC(=O)CC)c(OC)c3)C2=O)cc1OC`, for which the concentration for half-maximal inhibition (IC50) in series [1] was no less than 100 µM; in the series on RAW264.7 [2] it was 8.02 µM. For `CC(=O)Oc1ccc(/C=C2\CCC/C(=C\c3ccc(OC(C)=O)c(OC(C)=O)c3)C2=O)cc1OC(C)=O`, the IC50 in series [1] was no less than 100 µM; in the series on RAW264.7 [2], 6.84 µM. `COc1cc(/C=C2\CCCC3C2=NNC3c2ccc(O)c(OC)c2)ccc1O` (stereo not drawn): the Activity result with RAW264.7 [3] is recorded as “Non-toxic”; in the series on RAW264.7 [4], “Toxic”. For the same molecule, the IC50 in the series on RAW264.7 [2] came to 12.2 µM. As for `Oc1ccc(/C=C2\CCCC3C2=NNC3c2ccc(O)cc2)cc1` (stereo not drawn), the half-inhibitory concentration (IC50) with RAW264.7 [2] was determined as 26.9 µM. The same measure, in the same setting: as for `COc1ccc(/C=C2\CCCC3C2=NNC3c2ccc(OC)c(OC)c2)cc1OC` (stereo not drawn), the figure is 38.7 µM; as for `O=[N+]([O-])c1ccc(/C=C2\CCCC3C2=NNC3c2ccc([N+](=O)[O-])cc2)cc1` (stereo not drawn), no less than 50 µM; as for `Fc1ccc(/C=C2\CCCC3C2=NNC3c2ccc(F)cc2)cc1` (stereo not drawn), no less than 50 µM.

Consider `COc1cc(/C=C2\CCCC3C2=NN(C(C)=O)C3c2ccc(OC(C)=O)c(OC)c2)ccc1OC(C)=O` (stereo not drawn), for which the IC50 in the series with RAW264.7 [2] is no less than 50 µM.

Take `COc1ccc(/C=C2\CCCC3C2=NN(C(C)=O)C3c2ccc(OC)c(OC)c2)cc1OC` (stereo not drawn): in the series with RAW264.7 [2], the 50% inhibitory concentration (IC50) is no less than 50 µM. For `CC(=O)N1N=C2/C(=C/c3ccc([N+](=O)[O-])cc3)CCCC2C1c1ccc([N+](=O)[O-])cc1` (stereo not drawn), the IC50 in the series on RAW264.7 [2] was no less than 50 µM.

With `CC(=O)N1N=C2/C(=C/c3ccc(F)cc3)CCCC2C1c1ccc(F)cc1` (stereo not drawn), the IC50 with RAW264.7 [2] is no less than 50 µM. Same read-out and setting: as for `COc1cc(/C=C2\CCCC3C2=NN(C(=O)c2ccccc2)C3c2ccc(O)c(OC)c2)ccc1O` (stereo not drawn), the figure is 47.1 µM; as for `COc1ccc(/C=C2\CCCC3C2=NN(C(=O)c2ccccc2)C3c2ccc(OC)c(OC)c2)cc1OC` (stereo not drawn), 25.1 µM; as for `O=C(c1ccccc1)N1N=C2/C(=C/c3ccc([N+](=O)[O-])cc3)CCCC2C1c1ccc([N+](=O)[O-])cc1` (stereo not drawn), no less than 50 µM. With `O=C(c1ccccc1)N1N=C2/C(=C/c3ccc(F)cc3)CCCC2C1c1ccc(F)cc1` (stereo not drawn), the IC50 in the series on RAW264.7 [2] was no less than 50 µM. As to `O=C1/C(=C/c2cccc(O)c2)CC/C1=C\c1cccc(O)c1`, the 50% inhibitory concentration (IC50) in series [1] was no less than 100 µM; in the series on RAW264.7 [2] it was no less than 50 µM. With `O=C1/C(=C/c2ccc(O)cc2O)CC/C1=C\c1ccc(O)cc1O`, the results for the half-inhibitory concentration (IC50) (in series [1]; with RAW264.7 [2]) were 50.6 µM and no less than 50 µM, respectively. On to `O=C1/C(=C/c2cccc(O)c2O)CC/C1=C\c1cccc(O)c1O`, for which the concentration for half-maximal inhibition (IC50) amounted to 20.7 µM in series [1] and 7.94 µM in the series on RAW264.7 [2]. Regarding `O=C1/C(=C/c2cccc(O)c2)CCC/C1=C\c1cccc(O)c1`, the values for the Activity result in the series with RAW264.7 [3], with RAW264.7 [5] and in the series on RAW264.7 [4] were “Non-toxic”, “Toxic” and “Toxic”, respectively. The results for the IC50 (in series [1]; in the series on RAW264.7 [2]) were no less than 100 µM and 6.09 µM, respectively. Take `COc1cc(/C=C2\CC/C(=C\c3ccc(O)c(OC)c3)C2=O)ccc1O`: the Activity result in the series with RAW264.7 [3] is “Non-toxic”; with RAW264.7 [4] it was “Toxic”. In addition, the values for the IC50 (in series [1]; with RAW264.7 [2]) were 75 µM and 13.9 µM, respectively.

Take `O=C1/C(=C/c2ccc(O)c(O)c2)CC/C1=C\c1ccc(O)c(O)c1`: the IC50 is 14.8 µM in series [1] and 20.5 µM in the series with RAW264.7 [2].

In the case of `O=C1/C(=C/c2ccc(O)cc2)CC/C1=C\c1ccc(O)cc1`, the IC50 is no less than 100 µM in series [1] and no less than 50 µM in the series with RAW264.7 [2]. On the same counts, the results for `COc1ccc(/C=C2\CCC/C(=C\c3ccc(OC)c(OC)c3)C2=O)cc1OC` are no less than 100 µM and 19.8 µM.

For the molecule `O=C1/C(=C/c2ccc([N+](=O)[O-])cc2)CCC/C1=C\c1ccc([N+](=O)[O-])cc1`, the 50% inhibitory concentration (IC50) in series [1] is no less than 100 µM; in the series on RAW264.7 [2], 29.4 µM. On the same counts, the results for `O=C1/C(=C/c2ccc(F)cc2)CC/C1=C\c1ccc(F)cc1` are no less than 100 µM and no less than 50 µM. On the same counts, the results for `O=C1/C(=C/c2ccc(F)cc2)CCC/C1=C\c1ccc(F)cc1` are no less than 100 µM and no less than 50 µM. Consider `O=C1/C(=C/c2ccc(O)cc2)CCC/C1=C\c1ccc(O)cc1`, for which the half-inhibitory concentration (IC50) in series [1] was no less than 100 µM; in the series with RAW264.7 [2], 41.6 µM. For the molecule `COc1cc(/C=C/C(=O)CC(=O)/C=C/c2ccc(O)c(OC)c2)ccc1O` [CURCUMIN], in the series with RAW264.7 [2], the 50% inhibitory concentration (IC50) is 21.6 µM. Consider `COc1cc(/C=C2\CCC/C(=C\c3ccc(O)c(OC)c3)C2=O)ccc1O` [CYCLOVALONE], for which the Activity result is recorded as “Non-toxic” with RAW264.7 [3] and “Toxic” with RAW264.7 [4]. In addition, the values for the IC50 (in series [1]; in the series with RAW264.7 [2]) were 51.9 µM and 6.68 µM, respectively. For the molecule `COC(=O)[C@@H](N)CCCNC(=N)N[N+](=O)[O-]` [L-NAME], in the series with RAW264.7 [2], the IC50 was determined as 26.2 µM. For `O=c1c(O)c(-c2ccc(O)c(O)c2)oc2cc(O)cc(O)c12` [QUERCETIN], the IC50 in series [1] came out at 21.5 µM.

For orientation: IC50 means the point on the concentration scale where inhibition reaches its midpoint.
